Source: patent publication US11407781B2, “Equatorially modified polymer linked multimers of guanosine-3′, 5′-cyclic monophosphates” (GRAYBUG VISION, INC., priority 2016, dated 2022)
Marks after values point to notes of the source that are not given here.

Experiments:
[1] = Determination of lipophilicity by RP-18 HPLC retention (log k′g); assay type: physicochemical; settings: RP-18 reversed phase HPLC, gradient elution, ion pair chromatography with triethylammonium cation
From the text: Lipophilicity information is thus often only obtained by fragment analysis and corresponding calculations.
An established HPLC method, which is based on retention data on RP-18 reversed phase silica during gradient elution, was used for the determination of lipohilicity.
Instead of log P the method yields the descriptor log k′g, ranking analytes according to their lipophilicity on a logarithmic scale as well. Since charged molecules such as cyclic nucleotides have only hardly any retention on reversed phases, ion pair chromatography with the lipophilic triethylammonium cation is used.

[2] = system: primary rod-like cells derived from the rd1 mutant mouse; assay: Primary rod-like cells: cell death by Ethidium Homodimer assay; settings: compared to Rp-8-Br-cGMPS and Rp-8-Br-PET-cGMPS; 0.1 μM and 1 μM, 24 hours (FIG. 2)
Protocol: Legend: Primary rod-like cells derived from the rd1 mutant mouse undergo spontaneous cell death 11 days after differentiation. Rod-like cells were exposed to compounds at day 10 of culture and analyzed 24 hours later. A.: 0.1 μM concentration of tested compounds. B.: 1 μM concentration of tested compounds. Percentage of dying cells was evaluated by Ethidium Homodimer assay. Untreated cells are shown as control sample (black bar). Reference compounds Rp-8-Br-cGMPS and Rp-8-Br-PET-cGMPS are shown as dashed bars. Data are shown as means±SD from at least three biological replicates.
Primary rod-like cells were obtained by isolating stem cells from the ciliary epithelium of murine eyes.^15 The cells are cultured until they form neurospheres in DMEM/F12 with FGF (20 ng/ml), Heparin (2 μg/ml), N2 (1x), Glucose (0.6%), HEPES (5 μM) and 1% Penicillin/Streptomycin. Single neurospheres are picked and plated onto glass slides coated with ECM in the same medium as before with the exception of reduced FGF concentration (10 ng/ml) to induce adhesion. […] To assess cell death, microphotographs were taken from three different slides for each compound concentration and the total number of cells, as well as the number of dying Ethidium Homodimer positive cells, were counted in each picture. […]

[3] = system: photoreceptors of rd1 explants; assay: Retinal explants: photoreceptor cell death by TUNEL stain; assay type: cell-based, mouse; settings: 50 μM
Protocol: Legend: The animals at the age of postnatal day 5 (PN5) were killed by decapitation and retinas were dissected out with retinal pigment epithelium attached as described previously.^9 The retinas were flattened out on the membranes of commercially available 6-well culture inserts, after which 1.5 ml of a custom made culturing medium was added to each well. These explants were then kept in culture for two days without any treatment after which the test analogue of the invention at the desired concentration was added at a medium change at PN7 (“7” in Figure). There was then a new medium change at PN9 (“9” in Figure), with same concentration of analogue of the invention, upon which the cultures were kept until PN11 (“11” in Figure). At this time point the experiment was finished by a fixation procedure. This paradigm is therefore called PN5+2+4. […]
Legend: Effects of selected analogues at given concentrations of the invention on the cell death of photoreceptors of rd1 explants. The cell death was assessed by so called TUNEL stain on fixated and sectioned material, after which the number of dying cells was counted and analysed, and compared with that from untreated rd1 explants. In order to allow more direct comparisons between the different analogues and concentrations a ratio of treated/untreated specimens was calculated. […]

SMILES | log k′g [1] | further results
Cc1ccc(-c2cn3c(=O)c4nc(Br)n([C@@H]5O[C@@H]6COP(O)(=S)O[C@H]6[C@H]5O)c4nc3[nH]2)cc1 (single isomer, unassigned) [Compound 22, 8-Bromo-(4-methyl-β-phenyl-1,N^2-etheno)guanosine-3′,5′-cyclic monophosphorothioate, Rp-isomer] | 3.134 | –
O=c1c2nc(Br)n([C@@H]3O[C@@H]4CO[P@@](=O)(S)O[C@H]4[C@H]3O)c2nc2[nH]c(-c3ccc4ccccc4c3)cn12 (single isomer, unassigned) [Compound 24, 8-Bromo-(2-naphthyl-1,N^2-etheno)guanosine-3′,5′-cyclic monophosphorothioate, Rp-isomer] | 3.426 | –
Nc1nc2c(nc(Sc3ccccc3N)n2[C@@H]2O[C@@H]3CO[P@@](=O)(S)O[C@H]3[C@H]2O)c(=O)[nH]1 (single isomer, unassigned) [Compound 30, 8-(2-Aminophenylthio)guanosine-3′,5′-cyclic monophosphorothioate, Rp-isomer] | 1.974 | –
Nc1nc2c(nc(SCC(=O)Nc3ccccc3)n2[C@@H]2O[C@@H]3COP(O)(=S)O[C@H]3[C@H]2O)c(=O)[nH]1 (single isomer, unassigned) [Compound 31, 8-Phenylamidomethylthioguanosine-3′,5′-cyclic monophosphorothioate, Rp-isomer] | 2.105 | –
O=C(CSc1nc2c(=O)n3cc(-c4ccccc4)[nH]c3nc2n1[C@@H]1O[C@@H]2COP(O)(=S)O[C@H]2[C@H]1O)Nc1ccccc1 (single isomer, unassigned) [Compound 33, β-Phenyl-1,N^2-etheno-8-phenylamidomethylthioguanosine-3′,5′-cyclic monophosphorothioate, Rp-isomer] | 3.411 | –
O=c1c2nc(Sc3ccc(O)cc3)n([C@@H]3O[C@@H]4COP(O)(=S)O[C@H]4[C@H]3O)c2nc2[nH]c(-c3ccccc3)cn12 (single isomer, unassigned) [Compound 34, 8-(4-Hydroxyphenylthio)-β-phenyl-1,N^2-ethenoguanosine-3′,5′-cyclic monophosphorothioate, Rp-isomer] | 3.078 | –
Nc1nc2c(ncn2[C@@H]2O[C@@H]3COP(O)(=S)O[C@H]3[C@H]2O)c(=O)[nH]1 (some centres unmarked) [A, Rp-cGMPS, reference compound] | 0.894 | –
Nc1nc2c(nc(Br)n2[C@@H]2O[C@@H]3COP(O)(=S)O[C@H]3[C@H]2O)c(=O)[nH]1 (some centres unmarked) [B, Rp-8-Br-cGMPS, reference compound] | 1.285 | –
O=c1c2nc(Br)n([C@@H]3O[C@@H]4CO[P@@](O)(=S)O[C@H]4[C@H]3O)c2nc2[nH]c(-c3ccccc3)cn12 [C, Rp-8-Br-PET-cGMPS, reference compound] | 2.831 | –
Nc1nc2c(nc(SCC(=O)NCCOCCOCCOCCOCCOCCOCCOCCOCCNC(=O)CSc3nc4c(=O)[nH]c(N)nc4n3[C@@H]3O[C@@H]4COP(O)(=S)O[C@H]4[C@H]3O)n2[C@@H]2O[C@@H]3COP(O)(=S)O[C@H]3[C@H]2O)c(=O)[nH]1 (some centres unmarked) [Compound 1, Guanosine-3′,5′-cyclic monophosphorothioate[Rp]-[8-thiomethylamido-(octaethoxy)-ethylamidomethylthio-8]-guanosine-3′,5′-cyclic monophosphorothioate[Rp]] | 2.039* | protective effect against cell death in primary rod-like cells [2]: significantly improved potencies to prevent cell death
O=C(CSc1nc2c(=O)n3cc(-c4ccccc4)[nH]c3nc2n1[C@@H]1O[C@@H]2COP(O)(=S)O[C@H]2[C@H]1O)NCCOCCOCCOCCOCCOCCOCCOCCOCCNC(=O)CSc1nc2c(=O)n3cc(-c4ccccc4)[nH]c3nc2n1[C@@H]1O[C@@H]2COP(O)(=S)O[C@H]2[C@H]1O (stereo partly drawn) [Compound 2, β-Phenyl-1,N^2-ethenoguanosine-3′,5′-cyclic monophosphorothioate[Rp]-[8-thiomethylamido-(octaethoxy)-ethylamidomethylthio-8]-β-phenyl-1,N^2-ethenoguanosine-3′,5′-cyclic monophosphorothioate[Rp]] | 3.236* | protective effect against cell death in primary rod-like cells [2]: significantly improved potencies to prevent cell death
O=c1c2nc(Br)n(C3OC4COP(O)(=S)OC4C3O)c2nc2[nH]c(-c3ccsc3)cn12 (centres unmarked) [Compound 23, 8-Bromo-(3-thiophen-yl-1, N^2-etheno)guanosine-3′, 5′-cyclic monophosphorothioate] | 2.746 | –
O=c1c2nc(Br)n([C@@H]3O[C@@H]4CO[P@@](O)(=S)O[C@H]4[C@H]3O)c2nc2[nH]c(-c3ccccc3)cn12 [Rp-8-Br-PET-cGMPS] | – | photoreceptor cell death, ratio of treated/untreated specimens ([3]; PN5+2+4 paradigm, TUNEL stain, untreated = 1.0): about 0.78; reduction of photoreceptor cell death ([3]; versus untreated): more than 20%
Nc1nc2c(ncn2[C@@H]2O[C@@H]3COP(=O)(O)O[C@H]3[C@H]2O)c(=O)[nH]1 [cGMP, guanosine-3′,5′-cyclic monophosphate, reference compound] | 0.77 | –
